The assay relates to Clone20 osteoblast Shn3 3'UTR firefly luciferase, 24 h. In words: Shn3 3'UTR reporter inhibitors, dose response, cell-based, Clone20 osteoblasts, luminescence, dry powder, set 2 (AID 743417).

The AC50 is the midpoint of the concentration-response curve, whichever way the signal moves.

Several values for one entry are separate records, joined by “and”; a condition that tells them apart may be missing. Identical values can stand only once. Records with an inconclusive call do not appear. Activity calls are given as the source filed them.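 The calls were made as follows: active = compounds lowering the luciferase signal with a fitted half-maximal dose at most twice their top valid dose (cut at about 30 µM in these data); inconclusive = flat fits with moderate signal loss, or poor fits; inactive = the rest.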

For `COc1cc(OC)c(OC)cc1CNc1cc(C)ccc1OC`, the AC50 is 18.1 µM.
For `Clc1ccc(C[n+]2cc(-c3ccccc3)n3c2CCCCC3)c(Cl)c1`, the AC50 was 1.2 µM.
As for `CCn1c(=O)c(C(=O)Nc2nc3ccccc3[nH]2)c(O)c2ccccc21`, the figure is 6.01 µM; as for `CCOC(=O)c1nc(S(C)(=O)=O)ncc1Cl`, 6.37 µM; as for `CC(C)CCOc1cccc(OCC(=O)Nc2ccncc2)c1`, 0.571 µM.
With `Cn1cccc1C(=O)NC(=O)COC(=O)c1ccc(S(C)(=O)=O)c([N+](=O)[O-])c1`, the AC50 was 15.1 µM.
As for `CN(Cc1ccccc1)C(=O)c1cccc(NC(=O)Cc2ccc([N+](=O)[O-])cc2)c1`, the figure is 16.8 µM; as for `Cc1ccc(C)c(NC(=O)CN(C)C(=O)c2cccc(S(=O)(=O)N3CCN(Cc4ccccc4)CC3)c2)c1`, 3.5 µM; as for `Cc1ccnc(SCC(=O)Nc2sc3c(c2C#N)CCCC3)n1`, 0.955 µM.
For `COc1ccc(OC)c(/C=C/C(=O)N2C(=O)c3cccc(N)c3C2=O)c1`, the half-maximal activity concentration (AC50) is 3.25 µM.
As for `COc1ccc(CC(N)c2csc(NC(=O)Nc3cccc(C(F)(F)F)c3)n2)cc1` (stereo not drawn), the figure is 8.4 µM; as for `CN(CCO)c1cc(Sc2nc3ccccc3s2)c2nonc2c1[N+](=O)[O-]`, 1.55 µM.
The same measure for `O=[N+]([O-])c1cc(CN2CCN(c3ccccc3)CC2)c(O)c2ncccc12`: 1.99 µM.
As for `C#CCn1c(=NC(=O)c2ccc(S(=O)(=O)N3CCc4ccccc4C3)cc2)sc2cc(S(N)(=O)=O)ccc21`, the figure is 1.29 µM.
For the compound `CC(C)(C)[C@@H]1COC(=O)[C@@H](NC(=O)OCC2c3ccccc3-c3ccccc32)C/C=C\C[C@@H](CC(=O)NCCO)C(=O)N1`, the AC50 was 22.1 µM.
As to `O=C(O)c1cccc(COc2ccccc2Cl)c1`, the AC50 was 1.48 µM.
As for `COc1ccc(CNCCC(c2ccc(OC(C)C)cc2)c2ccccc2OC)cc1` (stereo not drawn), the figure is 3.86 µM; as for `COc1ccc(-c2ccc(Nc3ccc(S(=O)(=O)N4CCCC4)cc3)nn2)cc1OC`, 20.1 µM; as for `C[C@H]1CCC/C=C/[C@@H]2C[C@H](O)C[C@H]2[C@H](O)/C=C/C(=O)O1`, 3.15 µM and 2.2 µM.
As for `CCN(CC)S(=O)(=O)c1ccc(-c2ccc(S(=O)(=O)N(CC)CC)cc2)cc1`, the figure is 3.81 µM; as for `Cc1cc(C)c2nc(NNC(=O)c3ccc(S(=O)(=O)N4CCc5ccccc5C4)cc3)sc2c1`, 1.98 µM; as for `CCc1nc(N)nc(N)c1-c1ccc(N(C)Cc2ccccc2)c([N+](=O)[O-])c1`, < 0.26 µM.
As to `Cc1nc(N2CCN(C(=O)c3ccco3)CC2)c2c3c(sc2n1)CC(C)CC3` (stereo not drawn), the AC50 is 2.33 µM.
As for `c1ccc(CCNc2ccnc3cc4ccccc4cc23)cc1`, the figure is 1.62 µM; as for `CCN(CC)S(=O)(=O)c1ccc(S(=O)(=O)Nc2c(C)nn(C)c2C)cc1`, 2.24 µM; as for `COc1ccc(CCNc2ncnc3c2oc2ccccc23)cc1OC`, 0.524 µM.
The same measure for `CC(C)(C)c1ccc(C(O)CCCN2CCC(C(O)(c3ccccc3)c3ccccc3)CC2)cc1` (stereo not drawn): 16.7 µM.
The same measure for `Cc1cc(N2CCCC2=O)cc(C)c1S(=O)(=O)NCCOc1ccc(C(C)(C)C)cc1`: 1.15 µM; for `COc1cc(SC)ccc1C(=O)Nc1nc2ccccc2[nH]1`: < 0.26 µM; for `COc1ccc(CCN2CCC(Nc3nc4ccccc4n3Cc3ccc(F)cc3)CC2)cc1`: 3.03 µM.
`CCCCC1(Cc2ccc([N+](=O)[O-])cc2)C(=O)N(c2ccccc2)N(c2ccccc2)C1=O`: the AC50 was 10.2 µM.
`Cn1c(SCc2cccc(Br)c2)nc2ccccc2c1=O`: the AC50 was 7.68 µM.
On to `COc1cc(C)c(NC(=O)COc2cccc3c2OC(C)(C)C3)cc1OC`, for which the AC50 is 7.06 µM.
Consider `Cc1ccc(-n2cc(CNCCCn3ccnc3C)c(-c3ccc(F)cc3)n2)cc1`, for which the AC50 is 20.6 µM.
The same measure for `O=c1c2ccccc2cnn1-c1nc2ccccc2[nH]1`: 1.33 µM; for `CCc1ccc(OCCNc2cc(N3CCNC(C)C3)ccc2[N+](=O)[O-])cc1` (stereo not drawn): 15.6 µM; for `CN1CCN(Cc2nc3ccccc3c(=O)n2Cc2nc(-c3ccc4ccccc4c3)cs2)CC1`: 11 µM.
As for `CC(=O)c1ccc(N2CCC(c3cc(-c4ccc(Cl)cc4)n[nH]3)CC2)c([N+](=O)[O-])c1`, the AC50 was 5 µM.
As for `C[n+]1c2n(c3ccccc31)N=C(c1cc(C(C)(C)C)c(O)c(C(C)(C)C)c1)CS2`, the figure is 5.92 µM; as for `CCOC(=O)Cc1csc(SCC(=O)c2c(N)n(CC(C)C)c(=O)n(C)c2=O)n1`, 2.35 µM.
As for `Cn1cnc([N+](=O)[O-])c1S(=O)(=O)Oc1ccccc1`, the figure is 3.83 µM.
As for `CCCCCn1c(=O)c(C(=O)NC(C)c2ccccc2)c(O)c2ccccc21` (stereo not drawn), the figure is 11.7 µM; as for `O=C(c1cc2nc(-c3ccc(F)cc3)cc(C(F)(F)F)n2n1)N1CCCCC1c1cccnc1` (stereo not drawn), 2.37 µM.
In the case of `CC(C)Cn1c(N)c(C(=O)COC(=O)C2Cc3ccccc3CN2S(C)(=O)=O)c(=O)n(C)c1=O` (stereo not drawn), the AC50 is 0.72 µM.
As for `CC(C)(C)c1ccc(NC(=O)COc2ccc(-n3ccnc3)cc2)cc1`, the figure is 5.27 µM; as for `FC(F)(F)c1nc(-c2cccs2)ncc1-c1nnnn1-c1ccc(Cl)cc1`, 2.1 µM; as for `O[C@@H]1CN(Cc2ccc(-n3cccn3)cc2)CC[C@H]1N1CCN(c2ccccc2F)CC1`, 2.13 µM.
The same measure for `O=C(Sc1cccc2cccnc12)c1ccccc1Br`: 0.383 µM.
The same measure for `COc1ccc(C[C@H]2COC(=O)[C@@H]2Cc2ccc(OC3OC(CO)C(O)C(O)C3O)c(OC)c2)cc1OC` (stereo partly drawn): 4.43 µM; for `Cc1oc(=O)c(NC(=O)c2ccc(Cl)cc2)cc1C(=O)c1ccccc1`: 32.1 µM; for `CCCc1nnc(NC(=O)c2nc(S(=O)(=O)Cc3ccc(C)cc3)ncc2Cl)s1`: 0.538 µM.
Consider `COc1ccc(Nc2nc(N3CCCC3)c3ccccc3n2)cc1`, for which the AC50 was 3.67 µM.
As for `C=CCn1c(NCCc2ccccc2)nc2c1c(=O)n(C)c(=O)n2C`, the figure is 1.83 µM; as for `CSC1SCC2C(=O)N(C)C(C(C)C)C(=O)OCC(NC(=O)c3cnc4ccccc4n3)C(=O)NC(C)C(=O)N(C)C1C(=O)N(C)C(C(C)C)C(=O)OCC(NC(=O)c1cnc3ccccc3n1)C(=O)NC(C)C(=O)N2C` (stereo not drawn), < 0.26 µM.
As for `Cc1ccc2nc(-c3cccc(SC4CCCCC4)c3)c(NCc3ccccc3)n2c1`, the figure is 3.53 µM.
As for `O=[N+]([O-])c1c(NCCCO)cc(Sc2ccc(Cl)cc2)c2nonc12`, the figure is 5.63 µM; as for `CCCOC(=O)c1[nH]c2c(c1C)C(=O)CC(c1cc(OC)c(OC)c(OC)c1)C2` (stereo not drawn), 1.92 µM; as for `Cc1ccc2nnn(Cc3cccc(C(C)(C)C)c3O)c2c1`, 5.44 µM.
Turning to `COc1ccccc1C(=O)Nc1nc(-c2ccc(S(=O)(=O)N3CCOCC3)cc2)cs1`, the AC50 is 1.21 µM.
The same measure for `CN(C)CCCNc1c2ccccc2nc2ccccc12`: 3.22 µM; for `CC(=O)NC(c1cccc([N+](=O)[O-])c1)c1ccc2cccnc2c1O` (stereo not drawn): 0.889 µM; for `COc1ccc(NS(=O)(=O)c2ccc(N3CCOCC3)c(N)c2)cc1`: 1.08 µM.
The same measure for `O=C(Cc1ccc(Cl)cc1Cl)Nc1ccncc1Cl`: 1.63 µM.
As for `COc1ccc(CC2(CO)CCN(CC3=Cc4cc(Cl)ccc4OC3)CC2)cc1`, the figure is 1.33 µM.
In the case of `COc1ccc(C(=O)NNC(=O)c2cccc(S(=O)(=O)N3CCOCC3)c2)cc1`, the AC50 was 23.2 µM.
For the compound `NS(=O)(=O)c1ccc(CNC(=S)NC(=O)c2ccco2)cc1`, the AC50 was 22.9 µM.
In the case of `CCOc1cc2c(cc1OCC)-n1cccc1C(c1ccc(C(C)C)cc1)NC2` (stereo not drawn), the AC50 is 7.22 µM.
Turning to `CCOc1ccccc1Nc1cc(C)nc2ccccc12`, the half-maximal activity concentration (AC50) was 8.14 µM.
As for `Cc1cc2c(cc(C(=O)OC(C(=O)NC3CCCCC3)C(C)C)n2C)o1` (stereo not drawn), the figure is 5.9 µM; as for `CCC(=O)c1ccc(OCC(O)Cn2c(C)nc3ccccc32)cc1` (stereo not drawn), 2.28 µM.
For `Oc1c(C(Nc2cccc(C(F)(F)F)c2)c2ccncc2)ccc2cccnc12` (stereo not drawn), the concentration at half-maximal activity (AC50) is 5.8 µM.
Turning to `Cc1ccccc1C(=O)NC(=S)Nc1ccc(N2CCN(C(=O)c3ccccc3)CC2)cc1`, the AC50 is 1.88 µM.
As for `COCC1CCN(C(=O)c2cc(COc3ccc4ncccc4c3)on2)CC1`, the figure is 2.7 µM; as for `O=C(c1ccccc1)C(CN1CCCCC1)c1ccccc1` (stereo not drawn), 2.41 µM; as for `Cc1ccc(C(=O)Nc2cnc3ccccc3c2)cc1`, 4.04 µM.
As for `c1ccc(CC2CCN(c3ncnc4sccc34)CC2)cc1`, the figure is 0.362 µM; as for `O=C1CCc2cccc(O)c2N1`, 12.2 µM.
The same measure for `Oc1ccccc1C(Nc1nccs1)c1ccc2cccnc2c1O` (stereo not drawn): 1.13 µM.
Take `Cc1ccc(S(=O)(=O)N2CCN(c3ncnc4sccc34)CC2)cc1`: the AC50 is 2.72 µM.
The same measure for `Cc1ccc(-n2nnnc2C(Cl)(Cl)c2nnnn2-c2ccc(C)cc2)cc1`: 4.71 µM; for `O=S1(=O)C=C(Sc2nnc(-c3ccccc3)o2)c2ccccc21`: 1.7 µM.
The same measure for `Cn1nc(-c2ccc(Cl)cc2)c2cc(C(=O)N3CCN(c4ccccn4)CC3)sc21`: 4.02 µM; for `O=C(OCCN1C(=O)c2cccc3c(N4CCOCC4)ccc(c23)C1=O)c1ccccc1Cl`: 3.06 µM; for `C=CCNc1nc(N2CCOCC2)c(C#N)c2c1CN(C)CC2`: > 70 µM (inactive).
As for `CC(=O)NC(c1ccc(C)cc1)c1cc(Cl)c2cccnc2c1O` (stereo not drawn), the figure is 2.12 µM; as for `O=C(OCCOc1ccc(Cl)cc1)c1cc(S(=O)(=O)N2CCCCC2)ccc1N1CCOCC1`, 1.97 µM; as for `Cc1ccc(S(=O)(=O)NCc2ccc(C(=O)N3CCN(c4ccc([N+](=O)[O-])cc4)CC3)cc2)cc1`, 3.79 µM.
For `c1ccc2c(-c3[nH]ncc3CNCCCn3ncc4ccccc43)cccc2c1`, the AC50 is 3.25 µM.
The same measure for `CCCOc1ccc(C(=O)C(CN2CCCC2)c2ccccc2)cc1` (stereo not drawn): 4.84 µM; for `CCN(c1ccccc1)S(=O)(=O)c1ccc(Cl)c(NC(=O)CN(C)Cc2cccc(F)c2)c1`: 8.78 µM.
The same measure for `CC1CN(C(=O)CCc2cc(C(C)(C)C)c(O)c(C(C)(C)C)c2)CC(C)O1` (stereo not drawn): 2.56 µM; for `CC(C)(O)C#Cc1ccc([C@@H]2C[C@H]3CN(c4ccccc4)C(=O)[C@]34CCCN24)s1`: 4.93 µM.
As for `CCCCC(=O)NC(c1ccc(N(C)C)cc1)c1ccc2cccnc2c1O` (stereo not drawn), the figure is 0.98 µM.
